# Measured values from patent US20240366571A1, “MODULATORS OF SK4 POTASSIUM CHANNEL AND USES THEREOF” (Ramot at Tel-Aviv University Ltd., priority 2022, published 2024).
# Entries after “also recorded” stand apart in the source; their conditions may differ.
# Key:
# Type in all cases: cell-based
# human SK4 = biological target: T1, human SK4 (Homo sapiens, UniProt O15554); assay: Whole-cell patch-clamp of WT SK4 K+ currents in transfected CHO cells
# T1 construct: expressed in transfected cells; host or cells: CHO cells
# Description: (§1) Constructs: For CHO cell transfection, the following were cloned: human SK1, rat SK2, human SK3, and rat calmodulin into the pcDNA3 vector, human SK4 into pEGFP-C1 vector, and PIP4,5-kinase into an IRES-dsRed plasmid. The mutations were introduced using the PCR-based QuikChange™ site-directed mutagenesis (Stratagene®) and were verified by full sequencing of the entire plasmid vector.
# (§2) Cell Culture and Transfection: Chinese hamster ovary (CHO) cells were grown in Dulbecco's modified Eagle's medium supplemented with 2 millimolar (mM) glutamine, 10% fetal calf serum, and antibiotics. In brief, 40,000 cells seeded on poly-L-lysine-coated glass coverslips (13 millimeter (mm) in diameter) in a 24-multiwell plate were transfected with 0.5 microgram (μg) pEGFP-SK4/0.5 μg mutant SK4, 1.2 μg dsRed-PIP4,5-kinase or with 1 μg SK1/SK2/SK3 together with pIRES-CD8 (0.3 μg) as a marker for transfection. Transfection was performed using TransIT-LT1 Transfection Reagent (Mirus Bio) according to the manufacturer's protocol. For electrophysiology, transfected cells were visualized approximately 40 hours after transfection with a Zeiss Axiovert 35 inverted florescence microscope.
# Whole-cell patch-clamp recording: Voltage-clamp recordings were performed using the whole-cell configuration of the patch-clamp technique. Signals were amplified using an […] patch-clamp amplifier (Molecular Devices), sampled at 5 kHz and filtered at 2.4 kHz via a four pole Bessel low pass filter. Data were acquired using pClamp™ 10.5 software in conjunction with an Axon™ DigiData® 1440A interface (Molecular Devices). The patch pipettes were pulled from borosilicate glass (Harvard Apparatus) with a resistance of 3-5 megaohms (MΩ). The intracellular pipette solution contained 130 mM KCl, 5 mM EGTA, 10 mM HEPES, pH 7.3 (adjusted with KOH), and CaCl2 calculated for a final concentration of 1 μM free-Ca^2+, by MAXCHELATOR (WEBMAXC STANDARD) software, with sucrose added to adjust osmolarity to 290 mosM. The external solution (310 mosM) contained 140 mM NaCl, 4 mM KCl, 1.8 mM CaCl2, 1.2 mM MgCl2, 11 mM glucose, and 5.5 mM HEPES adjusted with NaOH to pH 7.3. CHO cells were held at −90 millivolt (mV) and SK4 K^+ currents were activated using a voltage ramp protocol from −100 mV to +60 mV for 150 milliseconds. Electrophysiological data analysis was performed using the Clampfit program (pClamp™ 10.5; Molecular Devices).
# Some of the compounds were tested by comparing trace of WT SK4 channel currents in the absence and presence of 20 μM of the tested compound.
# WT SK4 channels = biological target: T2, WT SK4 channels (Homo sapiens, UniProt O15554); assay: Inside-out macro-patch recording of WT SK4 channels in transfected CHO cells
# T2 construct: expressed in transfected cells; host or cells: CHO cells
# Description: Inside-out macro-patch recording: To measure the Ca^2+ concentration dependence for SK4 channel activation, CHO cells were co-transfected with plasmids encoding WT SK4 (1 μg) and WT CaM (1 μg) using the Lipofectamine reagent at a ratio of 1:2. The cells were transfected 48 hours prior to recordings. The patch pipettes were pulled and fire-polished with a MF-900 micro-forge (Narashige) to reach an internal diameter of […]. The resistance of the patch electrodes ranged from 2-3 MΩ. The pipette solution contained 135 mM KCl, 1 mM MgSO4, 0.91 mM CaCl2, and 10 mM HEPES at pH 7.3. The bath solution contained 135 mM KCl, 5 mM EGTA, and 10 mM HEPES at pH 7.3. EGTA was used to titer the different Ca^2+ concentration solutions, calculated using the software by C. Patton of Stanford University (http://maxchelator(dot)stanford(dot)edu/). Currents were recorded by 10 repetitive 1 second duration voltage ramps from −100 mV to +100 mV from a holding potential of 0 mV. The current amplitudes in response to increasing Ca^2+ concentrations were normalized to those obtained at a saturating Ca^2+ concentration (3 μM). Furthermore, to determine the Ca^2+ concentration dependence for activation in the presence of a tested compound, such as the exemplary compound BA6b9 (10 μM), the current amplitudes were normalized to those obtained at large maximal Ca^2+ concentration of 10 μM. For PIP2-dependent activation, PIP2 affinity to the SK4 channel was also examined in the inside-out configuration. The dose-response curve for PIP2 was measured with increasing concentrations of diC8-PIP2 in the presence of 1 μM Ca^2+. The diC8-PIP2 effect on the channel current was measured after complete depletion of the native PIP2 using sonicated poly-L-lysine (PLL) 50 μg/ml and a subsequent 2-minute washout. […] Apparent EC50 values for Ca^2+ or diC8-PIP2 were determined by fitting the data points to a standard dose-response curve Y=100/(1+10^(log EC(50)−X)*HillSlope).
# The calcium dependence of the human SK4 K^+ channel in transfected CHO cells was characterized using inside-out macro-patches. The expressed currents were recorded in response to voltage ramps (−100 millivolt (mV) to +100 mV for 1 seconds) and by increasing the free-Ca^2+ concentrations applied to the internal face of the membrane. […]
# To examine whether PIP2 is involved in the modulation of the SK4 channel, channel trafficking to the plasma membrane was increased by co-transfecting CHO cells with plasmid DNAs encoding for the channel and for wild type (WT) CaM. The resulting currents were recorded from inside-out macro-patches, where the intracellular solution contained a saturating concentration of 1 μM free-Ca^2+, as shown in FIG. 1B (see, black plot).
# human SK3 = biological target: T3, human SK3 (Homo sapiens, UniProt Q9UGI6); assay: Whole-cell patch-clamp of SK3 currents in CHO cells; conditions: 20 μM
# T3 construct: expressed in transfected cells; host or cells: CHO cells
# Description: as §1
# as §2, with “Transfection was performed using TransIT-LT1 Transfection Reagent (Mirus Bio) according to the manufacturer's protocol. For electrophysiology, transfected cells were visualized approximately 40 hours after transfection with a Zeiss Axiovert 35 inverted florescence microscope.” left out
# Whole-cell patch-clamp recording: Voltage-clamp recordings were performed using the whole-cell configuration of the patch-clamp technique. […] The intracellular pipette solution contained 130 mM KCl, 5 mM EGTA, 10 mM HEPES, pH 7.3 (adjusted with KOH), and CaCl2 calculated for a final concentration of 1 μM free-Ca^2+, by MAXCHELATOR (WEBMAXC STANDARD) software, with sucrose added to adjust osmolarity to 290 mosM. […]
smiles,measurement,setting,value
"CCCCCCCn1c(=O)oc2ccccc21 [BA6b9, 3-heptylbenzo[d]oxazol-2(3H)-one]",inhibition at 20 µM,"human SK4; CHO, 20 μM, whole-cell",56%
same,SK4 K+ channel modulating activity,human SK4; WT SK4 currents in absence and presence of 20 μM compound,inhibited; also recorded: Inhibitor
same,lowering of the sensitivity of SK4 channels to Ca2+,WT SK4 channels; 10 μM compound,about 7 fold
same,inhibition at 10 µM,"WT SK4 channels; CHO, 10 μM, 1 μM free-Ca2+, read-out: inhibition of SK4 currents in inside-out macro-patches",66%
same,SK3 activity in comparison with control,human SK3,95%
same,SK3 drug-to-control current ratio,human SK3,0.95
